According to PubChem BioAssay AID1963850 (Molecular Pharmacology Branch, DTP, NCI, 2024):

Test system: 192522-019-R-J2-PDC complex tumor spheroid viability
Assay: Anticancer human tumor 192522-019-R-J2-PDC patient-derived colon adenocarcinoma cell line growth inhibition [POLQ]
Details: for IC50: curve of first compound; for viability, T/C: stronger effect = lower value
Protocol: Multicellular complex tumor spheroid response to Polymerase (POL) inhibitors (novobiocin, ART-558, RP6685) in combination with a variety of drugs and investigational agents in selected tumor cell lines
The POL inhibitors (novobiocin, ART-558, and RP6685) were evaluated both individually and in combination with standard of care and investigational anticancer small molecules within a complex spheroid model of solid tumors. . Complex spheroids include a stromal component modeled by human endothelial cells (HUVEC) and fibroblasts modeled by human mesenchymal stem cells (MSCs). The concentration ranges selected for each drug and investigational agent were based upon clinically achievable concentrations if the clinical Cmax of the agent was known.
Compounds. The drugs and investigational agents: novobiocin (NSC847541), ART-558 (NSC835418), RP-6685 (NSC848927), peposertib (NSC802822), ceralasertib (NSC780249), elimusertib (NSC800525), camonsertib (NSC841442), AZD-1390 (NSC803789), olaparib (NSC753686), talazoparib (NSC767125), rucaparib (NSC756644), sotorasib (NSC818433), MRTX-1133 (NSC836407), SN-38 (NSC673596), topotecan (NSC609699), epotoside (NSC141540), doxorubicin (NSC123127), gemcitabine (NSC613327), 5-fluorouracil (NSC19893), paclitaxel (NSC125973), vemurafenib (NSC761431), MSA-2 (NSC828583), SN-011 (NSC837082), adavosertib (NSC754352), prexasertib (NSC758257), carboplatin (NSC241240) and oxaliplatin (NSC266046), were obtained from the National Cancer Institute (NCI) Developmental Therapeutics Program Chemical Repository (21). The FDA-approved anticancer drug set is available from the Developmental Therapeutics Program at https://dtp.cancer.gov/organization/dscb/obtaining/. […] The stock solutions were prepared in dimethyl sulfoxide (DMSO, Sigma-Aldrich, St. Louis, MO, cat. D2650), except for the platinum compounds which were prepared in saline (Quality Biological, Gaithersburg, MD, cat. 114-055-101), at 800-fold the tested concentration and stored at -70 degrees C prior to their use. All drugs and investigational agents were tested over a range starting from a high concentration at or near the clinical Cmax and decreasing in half-log increments. If the clinical Cmax for an agent had not been determined, the highest concentration tested was 10 microM, except for SN-38, which was tested at a high concentration of 1 microM.
Cell Culture. All cells were maintained in an incubator at 37 degrees C and 5% CO2 with 95% humidity. The PDC lines were cultured according to standard operating procedures established by the NCI PDMR (https://pdmr.cancer.gov). Table 3 of the manuscript, lists the cell lines along with the number of the three cell types plated to form the mct-spheroids and media for tumor cell growth. After thawing, all PDC lines, except 997537-175-T-J1-PDC and 415267-285-R-J2-PDC, were cultured in Matrigel-coated flasks prepared with a working solution of 1X Ham's F-12 nutrient mix, without supplementation (Thermo Fisher Scientific, cat. 11765054), 100 U/mL penicillin-streptomycin (Thermo Fisher Scientific, cat. 15140122), and 2.5% Matrigel (Corning Inc., Corning, NY, cat. 354248) for the first three passages. The two PDC lines 997537-175-T-J1-PDC and 415267-285-R-J2-PDC were cultured on uncoated flasks. The 857933-349-R-J2-PDC line was cultured in 6C/Colon 1B media containing advanced DMEM/F-12 (Thermo Fisher Scientific, cat. 12634028), 10 mM HEPES (Thermo Fisher Scientific, cat. 15630080), 1X GlutaMAX supplement (Thermo Fisher Scientific, cat. 35050061), 0.1 mg/mL primocin (InvivoGen, San Diego, CA, cat. ant-pm-2), 10% defined fetal bovine serum, heat inactivated (HyClone Laboratories Inc., Logan, UT, cat. SH30070.03HI), 50% L-WRN conditioned media (ATCC, cat. CRL-3276), 1.25 mM N-Acetyl-L-cysteine (Sigma-Aldrich, cat. A9165), 10 mM nicotinamide (Sigma-Aldrich, cat. N0636), 1X B-27 supplement (Thermo Fisher Scientific, cat. 17504044), 1X N-2 supplement (Thermo Fisher Scientific, cat. […]
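Further: spheroids exposed to drugs for seven days before reading.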
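Wherever viability, T/C is given: 100% = DMSO vehicle control viability in luminescence.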

For `Nc1ccn(C2OC(CO)C(O)C2(F)F)c(=O)n1` (configuration not stated) + Nc1ccc(C#CCN(C(=O)Cc2ncc(C(F)(F)F)cc2C(F)(F)F)c2ccc(F)cc2)nn1, the IC50 (second compound 0.0316 µM) was > 10 µM, the IC50 (second compound 0.1 µM) was > 10 µM and the IC50 (second compound 0.316 µM) was > 10 µM. For the same molecule, the IC50 (second compound 1 µM) was > 10 µM, the IC50 (second compound 3.16 µM) was > 10 µM and the IC50 (second compound 10 µM) was > 10 µM. For the same molecule, the viability, T/C (second compound 0.0316 µM, first compound 0.0316 µM) was 100%, the viability, T/C (second compound 0.0316 µM, first compound 0.1 µM) was 96.1% and the viability, T/C (second compound 0.0316 µM, first compound 0.316 µM) was 80.6%. The viability, T/C (second compound 0.0316 µM, first compound 1 µM) was 80.3%, the viability, T/C (second compound 0.0316 µM, first compound 3.16 µM) was 76.3% and the viability, T/C (second compound 0.0316 µM, first compound 10 µM) was 69.5%. The viability, T/C (second compound 0.1 µM, first compound 0.0316 µM) was 102%, the viability, T/C (second compound 0.1 µM, first compound 0.1 µM) was 94% and the viability, T/C (second compound 0.1 µM, first compound 0.316 µM) was 81%. It also gave a viability, T/C (second compound 0.1 µM, first compound 1 µM) of 76.8%, a viability, T/C (second compound 0.1 µM, first compound 3.16 µM) of 80.9% and a viability, T/C (second compound 0.1 µM, first compound 10 µM) of 66.8%. It also gave a viability, T/C (second compound 0.316 µM, first compound 0.0316 µM) of 112%, a viability, T/C (second compound 0.316 µM, first compound 0.1 µM) of 90.9% and a viability, T/C (second compound 0.316 µM, first compound 0.316 µM) of 82.2%. For the same molecule, the viability, T/C (second compound 0.316 µM, first compound 1 µM) was 80.4%, the viability, T/C (second compound 0.316 µM, first compound 3.16 µM) was 83.5% and the viability, T/C (second compound 0.316 µM, first compound 10 µM) was 69.7%. The viability, T/C (second compound 1 µM, first compound 0.0316 µM) was 105%, the viability, T/C (second compound 1 µM, first compound 0.1 µM) was 94.7% and the viability, T/C (second compound 1 µM, first compound 0.316 µM) was 88.4%. The viability, T/C (second compound 1 µM, first compound 1 µM) was 82.9%, the viability, T/C (second compound 1 µM, first compound 3.16 µM) was 82.4% and the viability, T/C (second compound 1 µM, first compound 10 µM) was 69.8%. It also gave a viability, T/C (second compound 3.16 µM, first compound 0.0316 µM) of 104%, a viability, T/C (second compound 3.16 µM, first compound 0.1 µM) of 91.4% and a viability, T/C (second compound 3.16 µM, first compound 0.316 µM) of 85.1%. The viability, T/C (second compound 3.16 µM, first compound 1 µM) was 82.3%, the viability, T/C (second compound 3.16 µM, first compound 3.16 µM) was 83.8% and the viability, T/C (second compound 3.16 µM, first compound 10 µM) was 71.4%. The viability, T/C (second compound 10 µM, first compound 0.0316 µM) was 109%, the viability, T/C (second compound 10 µM, first compound 0.1 µM) was 98.5% and the viability, T/C (second compound 10 µM, first compound 0.316 µM) was 95.3%. It also gave a viability, T/C (second compound 10 µM, first compound 1 µM) of 84.6%, a viability, T/C (second compound 10 µM, first compound 3.16 µM) of 84.4% and a viability, T/C (second compound 10 µM, first compound 10 µM) of 72.2%.
